# Assay results published in publication PMC3760249 (mBio, 2013).
# Tests used:
# AppA [1] = target: T1, AppA (Cereibacter sphaeroides, UniProt Q53119); assay: co-purification, flavin absorption spectrum; assay type: binding; settings: BLUF domain cofactor as purified
# T1 sequence (Q53119 1-450): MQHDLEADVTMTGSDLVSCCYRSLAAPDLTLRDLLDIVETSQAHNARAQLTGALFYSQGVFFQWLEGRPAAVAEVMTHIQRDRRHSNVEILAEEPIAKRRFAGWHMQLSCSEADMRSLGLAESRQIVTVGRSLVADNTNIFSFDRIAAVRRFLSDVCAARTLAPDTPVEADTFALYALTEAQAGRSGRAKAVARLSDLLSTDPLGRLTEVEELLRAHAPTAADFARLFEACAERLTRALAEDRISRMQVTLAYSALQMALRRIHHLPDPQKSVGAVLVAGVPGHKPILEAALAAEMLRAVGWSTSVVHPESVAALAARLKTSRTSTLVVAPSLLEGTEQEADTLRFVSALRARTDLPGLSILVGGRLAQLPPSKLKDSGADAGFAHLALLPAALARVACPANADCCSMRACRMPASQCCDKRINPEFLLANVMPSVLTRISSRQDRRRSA
# AppA [2] = target: T1, AppA; assay: biochemical
SMILES,"co-purification, flavin absorption spectrum (AppA [1])",Kd (AppA [2]) [nM]
Cc1cc2nc3c(=O)[nH]c(=O)nc-3n(C[C@H](O)[C@H](O)[C@H](O)COP(=O)(O)OP(=O)(O)OC[C@H]3O[C@@H](n4cnc5c(N)ncnc54)[C@H](O)[C@@H]3O)c2cc1C [flavin adenine dinucleotide],it does contain flavin adenine dinucleotide (FAD) as the BLUF domain cofactor,
C=CC1=C(C)C2=Cc3c(C=C)c(C)c4[n]3[Fe+][n]3c(c(C)c(CCC(=O)O)c3=CC3=NC(=C4)C(C)=C3CCC(=O)O)=CC1=N2 [heme],,1250 ± 440
